Test results as given in ChEMBL document CHEMBL3046439, “Spectroscopic characterization of novel d-amino acid-Schiff bases and their Cr(III) and Ni(II) complexes as antimicrobial agents” (2013).

Legend:
[1] = test system: Shigella dysenteriae; experiment: Antimicrobial activity against Shigella dysenteriae type 10 NCTC 9351 assessed as diameter of growth inhibition zone at 0.25 ug/ml after 24 hr by well diffusion method; assay type: functional; conditions: type 10 NCTC 9351, 24 h, read-out: DIZ
[2] = test system: Micrococcus luteus; experiment: Antimicrobial activity against Micrococcus luteus ATCC 9341 assessed as diameter of growth inhibition zone at 0.25 ug/ml after 24 hr by well-diffusion method; assay type: functional; conditions: ATCC 9341, 24 h, read-out: DIZ
[3] = test system: Escherichia coli; experiment: Antimicrobial activity against Escherichia coli ATCC 1280 assessed as diameter of growth inhibition zone at 0.25 ug/ml after 24 hr by well-diffusion method; assay type: functional; conditions: ATCC 1280, 24 h, read-out: DIZ
[4] = test system: Salmonella typhi; experiment: Antimicrobial activity against Salmonella enterica subsp. enterica serovar Typhi H NCTC 901.8394 assessed as diameter of growth inhibition zone at 0.25 ug/ml after 24 hr by well-diffusion method; assay type: functional; conditions: H NCTC 901.8394, 24 h, read-out: DIZ
[5] = test system: Brucella abortus; experiment: Antimicrobial activity against Brucella abortus (A.99, UK-1995) RSKK03026 assessed as diameter of growth inhibition zone at 0.25 ug/ml after 24 hr by well-diffusion method; assay type: functional; conditions: (A.99, UK-1995) RSKK03026, 24 h, read-out: DIZ
[6] = test system: Staphylococcus epidermidis; experiment: Antimicrobial activity against Staphylococcus epidermidis assessed as diameter of growth inhibition zone at 0.25 ug/ml after 24 hr by well diffusion method; assay type: functional; conditions: read-out: DIZ
[7] = test system: Listeria monocytogenes; experiment: Antimicrobial activity against Listeria monocytogenes ATCC 19115 assessed as diameter of growth inhibition zone at 0.25 ug/ml after 24 hr by well-diffusion method; assay type: functional; conditions: ATCC 19115, 24 h, read-out: DIZ
[8] = test system: Staphylococcus aureus; experiment: Antimicrobial activity against Staphylococcus aureus ATCC 25923 assessed as diameter of growth inhibition zone at 0.25 ug/ml after 24 hr by well-diffusion method; assay type: functional; conditions: ATCC 25923, 24 h, read-out: DIZ
[9] = test system: Candida albicans; experiment: Antimicrobial activity against Candida albicans Y-1200-NIH assessed as diameter of growth inhibition zone at 0.25 ug/ml after 24 hr by well-diffusion method; assay type: functional; conditions: read-out: DIZ
[10] = test system: Staphylococcus aureus; experiment: Antimicrobial activity against Staphylococcus aureus ATCC 25923 assessed as diameter of growth inhibition zone at 30 ug after 24 hr by well-diffusion method; assay type: functional; conditions: ATCC 25923, 24 h, read-out: DIZ
[11] = test system: Escherichia coli; experiment: Antimicrobial activity against Escherichia coli ATCC 1280 assessed as diameter of growth inhibition zone at 30 ug after 24 hr by well-diffusion method; assay type: functional; conditions: ATCC 1280, 24 h, read-out: DIZ
[12] = test system: Listeria monocytogenes; experiment: Antimicrobial activity against Listeria monocytogenes ATCC 19115 assessed as diameter of growth inhibition zone at 30 ug after 24 hr by well-diffusion method; assay type: functional; conditions: ATCC 19115, 24 h, read-out: DIZ
[13] = test system: Salmonella typhi; experiment: Antimicrobial activity against Salmonella enterica subsp. enterica serovar Typhi H NCTC 901.8394 assessed as diameter of growth inhibition zone at 30 ug after 24 hr by well-diffusion method; assay type: functional; conditions: H NCTC 901.8394, 24 h, read-out: DIZ
[14] = test system: Salmonella typhi; experiment: Antimicrobial activity against Salmonella enterica subsp. enterica serovar Typhi H NCTC 901.8394 assessed as diameter of growth inhibition zone at 10 ug after 24 hr by well-diffusion method; assay type: functional; conditions: H NCTC 901.8394, 24 h, read-out: DIZ
[15] = test system: Staphylococcus aureus; experiment: Antimicrobial activity against Staphylococcus aureus ATCC 25923 assessed as diameter of growth inhibition zone at 10 ug after 24 hr by well-diffusion method; assay type: functional; conditions: ATCC 25923, 24 h, read-out: DIZ
[16] = test system: Escherichia coli; experiment: Antimicrobial activity against Escherichia coli ATCC 1280 assessed as diameter of growth inhibition zone at 10 ug after 24 hr by well-diffusion method; assay type: functional; conditions: ATCC 1280, 24 h, read-out: DIZ
[17] = test system: Listeria monocytogenes; experiment: Antimicrobial activity against Listeria monocytogenes ATCC 19115 assessed as diameter of growth inhibition zone at 10 ug after 24 hr by well-diffusion method; assay type: functional; conditions: ATCC 19115, 24 h, read-out: DIZ
[18] = test system: Brucella abortus; experiment: Antimicrobial activity against Brucella abortus (A.99, UK-1995) RSKK03026 assessed as diameter of growth inhibition zone at 30 ug after 24 hr by well-diffusion method; assay type: functional; conditions: (A.99, UK-1995) RSKK03026, 24 h, read-out: DIZ
[19] = test system: Staphylococcus aureus; experiment: Antimicrobial activity against Staphylococcus aureus ATCC 25923 assessed as diameter of growth inhibition zone at 25 ug after 24 hr by well-diffusion method; assay type: functional; conditions: ATCC 25923, 24 h, read-out: DIZ
[20] = test system: Salmonella typhi; experiment: Antimicrobial activity against Salmonella enterica subsp. enterica serovar Typhi H NCTC 901.8394 assessed as diameter of growth inhibition zone at 25 ug after 24 hr by well-diffusion method; assay type: functional; conditions: H NCTC 901.8394, 24 h, read-out: DIZ
[21] = test system: Escherichia coli; experiment: microbe, parasite or virus in culture; conditions: ATCC 1280, 24 h, read-out: DIZ
[22] = test system: Listeria monocytogenes; experiment: Antimicrobial activity against Listeria monocytogenes ATCC 19115 assessed as diameter of growth inhibition zone at 25 ug after 24 hr by well-diffusion method; assay type: functional; conditions: ATCC 19115, 24 h, read-out: DIZ

| SMILES | zone of inhibition at 0.25 µg/mL [1] | zone of inhibition at 0.25 µg/mL [2] | zone of inhibition at 0.25 µg/mL [3] | zone of inhibition at 0.25 µg/mL [4] | zone of inhibition at 0.25 µg/mL [5] | zone of inhibition at 0.25 µg/mL [6] | zone of inhibition at 0.25 µg/mL [7] | zone of inhibition at 0.25 µg/mL [8] | zone of inhibition at 0.25 µg/mL [9] | other results |
| --- | --- | --- | --- | --- | --- | --- | --- | --- | --- | --- |
| C[C@@H](/N=C/c1cc(F)cc(Cl)c1O)C(=O)O | 11.5 mm | 23.5 mm | 15.5 mm | 11.5 mm | 17.5 mm | 12 mm | 12.5 mm | 16 mm | 15 mm |  |
| O=C(O)C/N=C/c1cc(F)cc(Cl)c1O | 18 mm | 26.5 mm | 16 mm | 18 mm | 15 mm | 12.5 mm | 10 mm | 18.5 mm | 15.5 mm |  |
| C[C@@H](/N=C/c1cc(F)ccc1O)C(=O)O |  | 14 mm | 10 mm |  | 10.5 mm | 5 mm | 6.5 mm | 6 mm | 12.5 mm |  |
| O=C(O)C/N=C/c1cc(F)ccc1O | 11 mm | 15 mm | 13 mm | 15 mm | 11.5 mm | 6 mm | 10 mm | 7 mm | 10 mm |  |
| CC1(C)S[C@@H]2[C@H](NC(=O)[C@H](N)c3ccc(O)cc3)C(=O)N2[C@H]1C(=O)O [AMOXICILLIN] |  |  |  |  |  |  |  |  |  | zone of inhibition at 30 µg/disc [10]: 30 mm; zone of inhibition at 30 µg/disc [11]: 14 mm; zone of inhibition at 30 µg/disc [12]: 22 mm; zone of inhibition at 30 µg/disc [13]: 19 mm |
| CC1(C)S[C@@H]2[C@H](NC(=O)[C@H](N)c3ccccc3)C(=O)N2[C@H]1C(=O)O [AMPICILLIN] |  |  |  |  |  |  |  |  |  | zone of inhibition at 10 µg/disc [14]: 11 mm; zone of inhibition at 10 µg/disc [15]: 30 mm; zone of inhibition at 10 µg/disc [16]: 10 mm; zone of inhibition at 10 µg/disc [17]: 16 mm |
| NC[C@H]1O[C@H](O[C@H]2[C@H](O)[C@@H](O[C@H]3O[C@H](CO)[C@@H](O)[C@H](N)[C@H]3O)[C@H](N)C[C@@H]2N)[C@H](O)[C@@H](O)[C@@H]1O [KANAMYCIN] |  |  |  |  |  |  |  |  |  | zone of inhibition at 30 µg/disc [10]: 25 mm; zone of inhibition at 30 µg/disc [11]: 25 mm; zone of inhibition at 30 µg/disc [12]: 15 mm; zone of inhibition at 30 µg/disc [13]: 20 mm |
| CC1(C)[C@H](C(=O)O)N2C(=O)C[C@H]2S1(=O)=O [SULBACTAM] |  |  |  |  |  |  |  |  |  | zone of inhibition at 30 µg/disc [18]: 12 mm |
| Cc1cc(NS(=O)(=O)c2ccc(N)cc2)no1 [SULFAMETHOXAZOLE] |  |  |  |  |  |  |  |  |  | zone of inhibition at 25 µg/disc [19]: 24 mm; zone of inhibition at 25 µg/disc [20]: 17 mm; zone of inhibition at 25 µg/disc [21]: 18 mm; zone of inhibition at 25 µg/disc [22]: 11 mm |
